Data published in patent publication US9023821B2, “Use of MicroRNA for treating diseases associated with a dysfunction of the cilia in multiciliated epithelial cells” (Centre National de la Recherche Scientifique, priority 2009, dated 2015).

How the values were obtained:
[1] = system: basal cells and pyramidal cells of the airway epithelium; assay: miRNA expression in sorted basal cells versus pyramidal cells (ciliated + secretory), HTS and Agilent chips; parameters: species or system human; details: for Modulation of expression of the miRNAs in pyramidal cells (323(−)) relative to basal cells 323(+): HTS and Agilent chips; for Intensity of the level of expression in log2 in pyramidal cells (323(−)): pyramidal cells (ciliated + secretory)
Method in brief: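 Nasal polyp or concha epithelial cells from 3 donors FACS-sorted into CD151+/tissue factor+ basal cells and CD151−/TF− pyramidal (ciliated plus mucus-secreting) cells, excluding dead (DAPI) cells and doublets. miRNA profiles from total RNA obtained by Agilent chips or high-throughput sequencing.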

[2] = system: human airway epithelial cells (HAECs); assay: High-throughput sequencing (HTS) of miRNAs at four stages of differentiation of HAECs; details: for Modulation (ratio of the level of intensity of expression in log2 in two stages of differentiation) measured by high-throughput sequencing, D7 − D0 / Modulation (ratio of the level of intensity of expression in log2 in two stages of differentiation) measured by high-throughput sequencing, FC − D7 / Modulation (ratio of the level of intensity of expression in log2 in two stages of differentiation) measured by high-throughput sequencing, WD − D0 / Modulation (ratio of the level of intensity of expression in log2 in two stages of differentiation) measured by high-throughput sequencing, WD − FC / Level of intensity of expression in log2 measured by high-throughput sequencing, D0 / Level of intensity of expression in log2 measured by high-throughput sequencing, D7 / Level of intensity of expression in log2 measured by high-throughput sequencing, FC / Level of intensity of expression in log2 measured by high-throughput sequencing, WD: Table VI; for Level of intensity of expression in log2 At the differentiated stage (WD) measured in HTS: healthy human airway epithelial tissue; for Level of intensity of expression in log2 measured by high-throughput sequencing, D0: stage D0; for Level of intensity of expression in log2 measured by high-throughput sequencing, D7: stage D7; for Level of intensity of expression in log2 measured by high-throughput sequencing, FC: stage FC; for Level of intensity of expression in log2 At the differentiated stage (WD) measured in HTS / Level of intensity of expression in log2 measured by high-throughput sequencing, WD: stage WD
Method in brief: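 Total RNA (with small RNAs) from air-liquid-interface HAECs at ALI-D0, D7, first cilia (~14 d) and fully differentiated (~21 d); adaptor-ligated SOLiD small-RNA libraries, RT-PCR, gel-selected ~105-150 bases. Counts normalized to 10^6 sequences as % abundance; linear-model/empirical Bayes; kept >1% abundance, |Log2 Ratio| <0.5, adjusted P <0.05.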

[3] = system: human airway epithelial cells (HAECs); assay: Agilent miRNA chips, miRNA expression at four stages of differentiation of HAECs; details: for Modulation (ratio of the level of intensity of expression in log2 in two stages of differentiation) measured with the Agilent chips, D7 − D0 / Modulation (ratio of the level of intensity of expression in log2 in two stages of differentiation) measured with the Agilent chips, FC − D7 / Modulation (ratio of the level of intensity of expression in log2 in two stages of differentiation) measured with the Agilent chips, WD − D0 / Modulation (ratio of the level of intensity of expression in log2 in two stages of differentiation) measured with the Agilent chips, WD − FC / Level of intensity of expression in log2 measured with the Agilent chips, D0 / Level of intensity of expression in log2 measured with the Agilent chips, D7 / Level of intensity of expression in log2 measured with the Agilent chips, FC / Level of intensity of expression in log2 measured with the Agilent chips, WD: Table VI; for Level of intensity of expression in log2 measured with the Agilent chips, D0: stage D0; for Level of intensity of expression in log2 measured with the Agilent chips, D7: stage D7; for Level of intensity of expression in log2 measured with the Agilent chips, FC: stage FC; for Level of intensity of expression in log2 measured with the Agilent chips, WD: stage WD
Method in brief: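 To benchmark sequencing, the microRNAome was also profiled by hybridizing labelled RNA from identical patient samples to v2 arrays with miRBase v.12.0 human content (866 miRNAs) and 89 viral miRNAs.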

hsa-miR-92b: human miRNA, SEQ ID No. 49 (UAUUGCACUCGUCCCGGCCUCC; expressed or natural sequence; listed as Homo sapiens)
Modulation of expression of the miRNAs in pyramidal cells (323(−)) relative to basal cells 323(+) [1]: 1.67
Intensity of the level of expression in log2 in basal cells (323(+)) [1]: 0.40 log2
Intensity of the level of expression in log2 in pyramidal cells (323(−)) [1]: 2.07 log2
Modulation (ratio of the level of intensity of expression in log2 in two stages of differentiation) measured by high-throughput sequencing, D7 − D0 [2]: 1.21 log2
Modulation (ratio of the level of intensity of expression in log2 in two stages of differentiation) measured by high-throughput sequencing, FC − D7 [2]: 4.12 log2
Modulation (ratio of the level of intensity of expression in log2 in two stages of differentiation), D7 − D0 ([2]; HTS): 1.21 log2
Modulation (ratio of the level of intensity of expression in log2 in two stages of differentiation), FC − D7 ([2]; HTS): 4.12 log2
Modulation (ratio of the level of intensity of expression in log2 in two stages of differentiation), WD − FC ([2]; HTS): 0.60 log2
Abundance (%), D0 ([2]; HTS, ALI-D0): 0.04%
Abundance (%), D7 ([2]; HTS, ALI-D7): 0.09%
Abundance (%), FC ([2]; HTS, ALI-FC): 1.54%
Abundance (%), WD ([2]; HTS, ALI-WD): 1.77%
Modulation (ratio of the level of intensity of expression in log2 in two stages of differentiation) measured by high-throughput sequencing, WD − D0 [2]: 5.93 log2
Modulation (ratio of the level of intensity of expression in log2 in two stages of differentiation) measured by high-throughput sequencing, WD − FC [2]: 0.60 log2
Level of intensity of expression in log2 At the differentiated stage (WD) measured in HTS [2]: 0.01 log2
Level of intensity of expression in log2 measured by high-throughput sequencing, D0 [2]: 7.49 log2
Level of intensity of expression in log2 measured by high-throughput sequencing, D7 [2]: 8.70 log2
Level of intensity of expression in log2 measured by high-throughput sequencing, FC [2]: 12.82 log2
Level of intensity of expression in log2 measured by high-throughput sequencing, WD [2]: 13.42 log2
Modulation (ratio of the level of intensity of expression in log2 in two stages of differentiation) measured with the Agilent chips, D7 − D0 [3]: 0.48 log2
Modulation (ratio of the level of intensity of expression in log2 in two stages of differentiation) measured with the Agilent chips, FC − D7 ([3]; FC − D7): 4.21 log2
Modulation (ratio of the level of intensity of expression in log2 in two stages of differentiation) measured with the Agilent chips, WD − D0 [3]: 4.39 log2
Modulation (ratio of the level of intensity of expression in log2 in two stages of differentiation) measured with the Agilent chips, WD − FC ([3]; WD − FC): −0.29 log2
Level of intensity of expression in log2 measured with the Agilent chips, D0 [3]: 0.10 log2
Level of intensity of expression in log2 measured with the Agilent chips, D7 [3]: 0.57 log2
Level of intensity of expression in log2 measured with the Agilent chips, FC [3]: 4.78 log2
Level of intensity of expression in log2 measured with the Agilent chips, WD [3]: 4.49 log2

hsa-miR-96: human miRNA, SEQ ID No. 51 (UUUGGCACUAGCACAUUUUUGCU; expressed or natural sequence; listed as Homo sapiens)
Modulation of expression of the miRNAs in pyramidal cells (323(−)) relative to basal cells 323(+) [1]: −1.51
Intensity of the level of expression in log2 in basal cells (323(+)) [1]: 6.81 log2
Intensity of the level of expression in log2 in pyramidal cells (323(−)) [1]: 5.30 log2
Modulation (ratio of the level of intensity of expression in log2 in two stages of differentiation) measured by high-throughput sequencing, D7 − D0 [2]: −0.08 log2
Modulation (ratio of the level of intensity of expression in log2 in two stages of differentiation) measured by high-throughput sequencing, FC − D7 [2]: −0.71 log2
Modulation (ratio of the level of intensity of expression in log2 in two stages of differentiation) measured by high-throughput sequencing, WD − D0 [2]: 0.02 log2
Modulation (ratio of the level of intensity of expression in log2 in two stages of differentiation) measured by high-throughput sequencing, WD − FC [2]: 0.81 log2
Level of intensity of expression in log2 At the differentiated stage (WD) measured in HTS [2]: 12.65 log2
Level of intensity of expression in log2 measured by high-throughput sequencing, D0 [2]: 5.41 log2
Level of intensity of expression in log2 measured by high-throughput sequencing, D7 [2]: 5.33 log2
Level of intensity of expression in log2 measured by high-throughput sequencing, FC [2]: 4.62 log2
Level of intensity of expression in log2 measured by high-throughput sequencing, WD [2]: 5.43 log2
Modulation (ratio of the level of intensity of expression in log2 in two stages of differentiation) measured with the Agilent chips, D7 − D0 [3]: 1.19 log2
Modulation (ratio of the level of intensity of expression in log2 at two stages of differentiation), FC − D7 ([3]; FC − D7, Agilent miRNA chips, Table V): −0.50 log2
Modulation (ratio of the level of intensity of expression in log2 in two stages of differentiation) measured with the Agilent chips, FC − D7 ([3]; FC − D7): −0.50 log2
Modulation (ratio of the level of intensity of expression in log2 in two stages of differentiation) measured with the Agilent chips, WD − D0 [3]: 0.64 log2
Modulation (ratio of the level of intensity of expression in log2 at two stages of differentiation), WD − FC ([3]; WD − FC, Agilent miRNA chips, Table V): −0.04 log2
Modulation (ratio of the level of intensity of expression in log2 in two stages of differentiation) measured with the Agilent chips, WD − FC ([3]; WD − FC): −0.04 log2
Level of intensity of expression in log2 measured with the Agilent chips, D0 [3]: 8.52 log2
Level of intensity of expression in log2 measured with the Agilent chips, D7 [3]: 9.71 log2
Level of intensity of expression in log2 measured with the Agilent chips, FC [3]: 9.21 log2
Level of intensity of expression in log2 measured with the Agilent chips, WD [3]: 9.16 log2
